Experimental findings from ChEMBL document CHEMBL2040746, “Synthesis and evaluation of novel podophyllotoxin analogs” (Bioorg Med Chem Lett, 2012) are described below.

Values after ≈ are worked out from the molar mass of the structure shown.

What all share (type): functional, cell-based
One test has as its system A549. The test is described as follows: Cytotoxicity against human A549 cells by SRB assay.
For another test, the system named is DU-145. The test is described as follows: Cytotoxicity against human DU145 cells by SRB assay.
In a further test the test system is KB. The test is described as follows: Cytotoxicity against human KB cells by SRB assay.
The nature of test [1]: Cytotoxicity against human KBVIN cells by SRB assay.

As to `COc1cc2c(cc1OC)[C@@H](c1cc(OC)c(OC)c(OC)c1)[C@H](C(=O)N1CCCC1)C(/C=C/C(=O)c1ccc(C3CCCCC3)cc1)=C2`, the IC50 in the test with A549 stood at 12 mg/L (≈ 18 µM); in the test on DU-145, 12.8 mg/L (≈ 19.2 µM); with KB, 12.3 mg/L (≈ 18.4 µM); in test [1] it was 12.3 mg/L (≈ 18.5 µM).

Regarding `COC(=O)[C@H]1C(/C=C/C(=O)c2ccc(O)cc2)=Cc2cc(OC)c(OC)cc2[C@H]1c1cc(OC)c(OC)c(OC)c1`, the IC50 in the test with A549 turned out to be 6.79 mg/L (≈ 12.1 µM); in the test on DU-145, 5.84 mg/L (≈ 10.4 µM); in the test on KB, 5.9 mg/L (≈ 10.5 µM); in test [1] it was 5.17 mg/L (≈ 9.22 µM).

As for `COC(=O)[C@H]1C(/C=C/C(=O)c2ccc([N+](=O)[O-])cc2)=Cc2cc(OC)c(OC)cc2[C@H]1c1cc(OC)c(OC)c(OC)c1`, the 50% inhibitory concentration (IC50) in the test with A549 stood at 16.8 mg/L (≈ 28.5 µM); in the test on DU-145, 20.3 mg/L (≈ 34.4 µM); in the test on KB, 16 mg/L (≈ 27.1 µM); in test [1], 23 mg/L (≈ 39 µM).

Regarding `COc1cc([C@@H]2c3cc4c(cc3[C@@H](Nc3ccc([N+](=O)[O-])cc3)[C@H]3COC(=O)[C@H]23)OCO4)cc(OC)c1O`, the IC50 is 0.113 mg/L (≈ 0.217 µM) with A549, 0.8 mg/L (≈ 1.54 µM) with DU-145, 0.819 mg/L (≈ 1.57 µM) in the test with KB and 2.1 mg/L (≈ 4.03 µM) in test [1].

As to `COc1cc2c(cc1OC)[C@@H](c1cc(OC)c(OC)c(OC)c1)[C@H](C(=O)N1CCCC1)C(/C=C/C(=O)c1ccc(-c3ccccc3)cc1)=C2`, the concentration for half-maximal inhibition (IC50) stood at 24.6 mg/L (≈ 37.3 µM) with A549, 15.5 mg/L (≈ 23.4 µM) in the test on DU-145, 16.6 mg/L (≈ 25.2 µM) with KB and 16.9 mg/L (≈ 25.6 µM) in test [1].
